Laboratory results published in US20210355104A1, “ADENOSINE RECEPTOR BINDING COMPOUNDS” (Nikang Therapeuticsm Inc., priority 2018, published 2021).
Values joined by “and” are separate entries in the source; they are usually repeats but may differ in a detail not shown here. Equal values may be shown once.

How the values were obtained:
[1] = target: T1, Adenosine A2A receptor (Homo sapiens, UniProt P29274); experiment: Adenosine A2A receptor competitive binding assay (Tag-lite HTRF); conditions: Tag-lite adenosine A2A receptor ligand binding
Experimental: Adenosine A2A Receptor Competitive Binding Assay
The Tag-lite adenosine A2A receptor ligand binding assay is a homogeneous alternative to radioligand binding assay and developed by Cisbio (Bedford, Mass.). We carried out this assay following Cisbio's instructions with minor modification. Pre-transfected, fluorescent donor-labelled cells (Cisbio Cat#: C1TT1A2A, 200 testes) was stored at −80° C. and thawed right before use. Cells were washed once with 5 ml TLB and gently resuspended in 2 ml TLB. 4 μl suspended cells was dispensed into each well of white low-volume 384-well plate (Greiner Bio-One). Serial dilutions of compounds were prepared in Tag-lite buffer (TLB, Cisbio Cat #: LABMED) to a DMSO concentration of 0.6%. After adding 4 μl of compound dilutions to each well, 4 μl60 nM Adenosine A2A receptor red antagonist fluorescent ligand (Cisbio Cat #: L0058RED) was dispensed to each well. The 384-well assay plate was centrifuged briefly and incubated at room temperature for 2 h. HTRF signals were measured using CIARIOstar plate reader (BMG Labtech).

[2] = target: T1, Adenosine A2A receptor; experiment: cAMP assay in 293A cells stably expressing the adenosine A2A receptor (CGS21680 stimulation, HTRF); format: cell-based; parameters: expressed in transfected cells; host or cells: 293A cells (Invitrogen, Cat# R705-07) infected with A2A-expressing lentivirus (custom packaged by Biosettia), puromycin selected; conditions: 293A-A2AR cells, 0.1% BSA
[3] = 2 h room temperature, values separated by / are repeat determinations
[4] = 1 uM CGS, values separated by / are repeat determinations, read-out: cAMP (nM) 0.1% BSA, 1 uM CGS
[5] = 8 nM CGS, values separated by / are repeat determinations, read-out: cAMP (nM) 0.1% BSA, 8 nM CGS
[6] = 1 uM CGS, read-out: cAMP (nM) 0.1% BSA, 1 uM CGS
[7] = 8 nM CGS, read-out: cAMP (nM) 0.1% BSA, 8 nM CGS

T1 sequence (P29274 whole entry): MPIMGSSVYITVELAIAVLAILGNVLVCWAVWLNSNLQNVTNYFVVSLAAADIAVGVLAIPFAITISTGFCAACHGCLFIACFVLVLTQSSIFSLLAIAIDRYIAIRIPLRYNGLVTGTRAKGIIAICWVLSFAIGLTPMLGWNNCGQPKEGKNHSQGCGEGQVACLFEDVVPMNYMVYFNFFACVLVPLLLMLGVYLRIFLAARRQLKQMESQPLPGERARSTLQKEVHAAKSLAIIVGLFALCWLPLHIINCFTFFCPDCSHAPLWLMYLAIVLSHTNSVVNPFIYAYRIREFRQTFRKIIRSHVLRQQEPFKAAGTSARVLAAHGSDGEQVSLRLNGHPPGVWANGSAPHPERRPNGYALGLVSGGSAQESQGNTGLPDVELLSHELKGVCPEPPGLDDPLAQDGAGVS

| SMILES | IC50 [1, 3] | IC50 [2, 4] | IC50 [2, 5] | IC50 ([1]; HTRF) [nM] | IC50 [2, 6] [nM] | IC50 [2, 7] |
| --- | --- | --- | --- | --- | --- | --- |
| Cc1cc(-c2c(OC[C@@H](C)O)nc(N)nc2-c2ccc(F)cc2)cc(C(F)F)n1 [Example 74, (R)-1-((2-amino-5-(2-(difluoromethyl)-6-methylpyridin-4-yl)-6-(4-fluorophenyl)pyrimidin-4-yl)oxy)propan-2-ol] | 8.4 nM and 15.7 nM | 693 nM |  |  |  |  |
| Cc1cc(-c2c(OCc3nc(C)n[nH]3)nc(N)nc2-c2ccc(F)cc2)cc(C(F)F)n1 [Example 97, 5-(2-(difluoromethyl)-6-methylpyridin-4-yl)-4-(4-fluorophenyl)-6-((3-methyl-1H-1,2,4-triazol-5-yl)methoxy)pyrimidin-2-amine] | 14 nM | 3310 nM | 4.5 nM |  |  |  |
| Cc1cc(-c2c(OCCNS(N)(=O)=O)nc(N)nc2-c2ccc(F)cc2)cc(C(F)F)n1 [Example 59] | 1.8 nM and 7.8 nM | 663 nM and 394 nM | 2.2 nM and 1.3 nM |  |  |  |
| CCn1cnc(COc2nc(N)nc(-c3ccc(F)cc3)c2-c2cc(C)nc(C(F)F)c2)n1 [Example 221, 5-(2-(difluoromethyl)-6-methyipyridin-4-yl)-4-((1-ethyl-1H-1,2,4-triazol-3-yl)methoxy)-6-(4-fluorophenyl)pyrimidin-2-amine] |  |  |  | 24 | 444 |  |
| CNC(=O)OCCOc1nc(N)nc(-c2ccccc2)c1-c1cc(C)nc(C(F)(F)F)c1 [Example 144, 2-((2-amino-5-(2-methyl-6-(trifluoromethyl)pyridin-4-yl)-6-phenylpyrimidin-4-yl)oxy)ethyl methylcarbamate] | 4.5 nM |  | 4.2 nM |  |  |  |
| CCNC(=O)N(CC)CCOc1nc(N)nc(-c2ccc(F)cc2)c1-c1cc(C)nc(C(F)F)c1 [Example 123, 1-(2-((2-amino-5-(2-(difluoromethyl)-6-methylpyridin-4-yl)-6-(4-fluorophenyl)pyrimidin-4-yl)oxy)ethyl)-1,3-diethylurea] | 1.2 nM |  | 0.87 nM and 0.67 nM |  |  |  |
| Cc1cc(-c2c(O[C@H](C)CO)nc(N)nc2-c2ccc(F)cc2)cc(C(F)F)n1 [Example 73, (R)-2-((2-amino-5-(2-(difluoromethyl)-6-methylpyridin-4-yl)-6-(4-fluorophenyl)pyrimidin-4-yl)oxy)propan-1-ol] | 25 nM |  | 3.6 nM |  |  |  |
| Cc1cc(-c2c(OCc3ccc(C(C)(C)O)cn3)nc(N)nc2-c2ccc(F)cc2)cc(C(F)F)n1 [Example 217, 2-(6-(((2-amino-5-(2-(difluoromethyl)-6-methylpyridin-4-yl)-6-(4-fluorophenyl)pyrimidin-4-yl)oxy)methyl)pyridin-3-yl)propan-2-ol] |  |  |  | 21 | 6500 |  |
| Cc1cc(-c2c(OCc3cccc(CO[C@H]4CCOC4)n3)nc(N)nc2-c2ccccc2)cc(C(F)(F)F)n1 [Example 5, (S)-5-(2-methyl-6-(trifluoromethyl)pyridin-4-yl)-4-phenyl-6-((6-(((tetrahydrofuran-3-yl)oxy)methyl)pyridin-2-yl)methoxy)pyrimidin-2-amine] | 8.97 nM |  | 11.5 nM |  |  |  |
| Cc1cc(-c2c(OCC3CNC3)nc(N)nc2-c2ccc(F)cc2)cc(C(F)F)n1 [Example 75, 4-(azetidin-3-ylmethoxy)-5-(2-(difluoromethyl)-6-methylpyridin-4-yl)-6-(4-fluorophenyl)pyrimidin-2-amine] | 201 nM |  | 89 nM |  |  |  |
| Cc1cc(-c2c(OCc3cn(C(C)C)nn3)nc(N)nc2-c2ccc(F)cc2)cc(C(F)F)n1 [Example 208, 5-(2-(difluoromethyl)-6-methylpyridin-4-yl)-4-(4-fluorophenyl)-6-((1-isopropyl-1H-1,2,3-triazol-4-yl)methoxy)pyrimidin-2-amine] |  |  |  | 3.4 | 394 | 1.4 nM and 1 nM |
| Cc1cc(-c2c(OCc3nccn3C(C)C(=O)O)nc(N)nc2-c2ccc(F)cc2)cc(C(F)F)n1 (centres unmarked) [Example 205, 2-(2-(((2-amino-5-(2-(difluoromethyl)-6-methylpyridin-4-yl)-6-(4-fluorophenyl)pyrimidin-4-yl)oxy)methyl)-1H-imidazol-1-yl)propanoic acid] |  |  |  | 12 |  | 29 nM |
| Cc1cc(-c2c(OCCN(C)c3ccc(S(C)(=O)=O)cn3)nc(N)nc2-c2ccc(F)cc2)cc(C(F)F)n1 [Example 157, 5-(2-(difluoromethyl)-6-methylpyridin-4-yl)-4-(4-fluorophenyl)-6-(2-(methyl(5-(methylsulfonyl)pyridin-2-yl)amino)ethoxy)pyrimidin-2-amine] | 79 nM |  | 52 nM |  |  |  |
| COC(=O)N1CCC(COc2nc(N)nc(-c3ccc(F)cc3)c2-c2cc(C)nc(C(F)F)c2)CC1 [Example 106, methyl 4-(((2-amino-5-(2-(difluoromethyl)-6-methylpyridin-4-yl)-6-(4-fluorophenyl)pyrimidin-4-yl)oxy)methyl)piperidine-1-carboxylate] | 38 nM |  | 43 nM |  |  |  |
| Cc1cc(-c2c(OC[C@H](C)O)nc(N)nc2-c2ccc(F)cc2)cc(C(F)F)n1 [Example 77, (S)-1-((2-amino-5-(2-(difluoromethyl)-6-methylpyridin-4-yl)-6-(4-fluorophenyl)pyrimidin-4-yl)oxy)propan-2-ol] | 3.9 nM and 4.2 nM | 547 nM |  |  |  |  |
| CCN(C(=O)COc1nc(N)nc(-c2ccc(F)cc2)c1-c1cc(C)nc(C(F)F)c1)c1ccccn1 [Example 117, 2-((2-amino-5-(2-(difluoromethyl)-6-methylpyridin-4-yl)-6-(4-fluorophenyl)pyrimidin-4-yl)oxy)-N-ethyl-N-(pyridin-2-yl)acetamide] | 39.4 nM |  | 27 nM |  |  |  |
| Cc1cc(-c2c(NCc3cccc(CO[C@H]4CCOC4)n3)nc(N)nc2-c2ccccc2)cc(C(F)(F)F)n1 [Example 4, (S)-5-(2-methyl-6-(trifluoromethyl)pyridin-4-yl)-6-phenyl-N4-((6-(((tetrahydrofuran-3-yl)oxy)methyl)pyridin-2-yl)methyl)pyrimidine-2,4-diamine] | 139 nM | 23100 nM | 482 nM and 288 nM |  |  |  |
| CCOC(=O)NCCOc1nc(N)nc(-c2ccc(F)cc2)c1-c1cc(C)nc(C(F)F)c1 [Example 54, ethyl(2-((2-amino-5-(2-(difluoromethyl)-6-methylpyridin-4-yl)-6-(4-fluorophenyl)pyrimidin-4-yl)oxy)ethyl)carbamate] | 2.1 nM and 10 nM |  | 0.22 nM and 1.45 nM |  |  |  |
| CCN(CC)C(=O)COc1nc(N)nc(-c2ccc(F)cc2)c1-c1cc(C)nc(C(F)F)c1 [Example 28, 2-([2-amino-5-[2-(difluoromethyl)-6-methylpyridin-4-yl]-6-(4-fluorophenyl)pyrimidin-4-yl]oxy)-N,N-diethylacetamide] | 7.56 nM |  | 0.44 nM and 1.3 nM |  |  |  |
| Cc1cc(-c2c(OCCN(C)c3cnccn3)nc(N)nc2-c2ccc(F)cc2)cc(C(F)F)n1 [Example 152, 5-(2-(difluoromethyl)-6-methylpyridin-4-yl)-4-(4-fluorophenyl)-6-(2-(methyl(pyrazin-2-yl)amino)ethoxy)pyrimidin-2-amine] | 5.1 nM | 351 nM |  |  |  |  |
| Cc1cc(-c2c(OCC(C)(C)C(=O)O)nc(N)nc2-c2ccc(F)cc2)cc(C(F)F)n1 [Example 61, 3-((2-amino-5-(2-(difluoromethyl)-6-methylpyridin-4-yl)-6-(4-fluorophenyl)pyrimidin-4-yl)oxy)-2,2-dimethylpropanoic acid] | 280 nM |  | 233 nM |  |  |  |
| Cc1cc(-c2c(OCc3nccn3CC(C)(C)O)nc(N)nc2-c2ccc(F)cc2)cc(C(F)F)n1 [Example 175, 1-(2-(((2-amino-5-(2-(difluoromethyl)-6-methylpyridin-4-yl)-6-(4-fluorophenyl)pyrimidin-4-yl)oxy)methyl)-1H-imidazol-1-yl)-2-methylpropan-2-ol] | 15 nM |  | 19 nM |  |  |  |
| Cc1cc(-c2c(OCc3cnnn3C(C)C)nc(N)nc2-c2ccc(F)cc2)cc(C(F)F)n1 [Example 180, 5-(2-(difluoromethyl)-6-methylpyridin-4-yl)-4-(4-fluorophenyl)-6-((1-isopropyl-1H-1,2,3-triazol-5-yl)methoxy)pyrimidin-2-amine] | 15 nM |  | 2.5 nM |  |  |  |
| COC(=O)NCCOc1nc(N)nc(-c2ccccc2)c1-c1cc(C)nc(C(F)(F)F)c1 [Example 119, methyl(2-((2-amino-5-(2-methyl-6-(trifluoromethyl)pyridin-4-yl)-6-phenylpyrimidin-4-yl)oxy)ethyl)carbamate] | 16.8 nM |  | 5.8 nM and 5.4 nM |  |  |  |
| CCN(CC)C(=O)COc1nc(N)nc(-c2ccccc2)c1-c1cc(C)nc(C(C)(F)F)c1 [Example 16, 2-((2-amino-5-(2-(1,1-difluoroethyl)-6-methylpyridin-4-yl)-6-phenylpyrimidin-4-yl)oxy)-N,N-diethylacetamide] | 1.47 nM |  | 6.5 nM |  |  |  |
| Cc1cc(-c2c(OCC(=O)NCc3ccccc3)nc(N)nc2-c2ccc(F)cc2)cc(C(F)F)n1 [Example 84] | 17 nM |  | 8.7 nM |  |  |  |
